{"source": "patent US20200282019A1", "about": "“METHODS OF TREATING NEURODEGENERATIVE DISEASES” (priority 2017, published 2020)", "key": {"[1]": {"test_system": "primary cortical neuron cultures", "experiment": "Aβ-induced toxicity, MTT cell survival in primary cortical neuron cultures", "format": "cell-based, mice", "details": "for cell survival (MTT, control cells normalized to 100%): overnight", "experimental": "The inventors applied three different doses of Aβ overnight to primary cortical neuron cultures obtained from neonatal mice and examined cell survival using the MTT chemiluminescent assay (FIG. 6). The MTT value of control cells (no Aβ added) was normalized to 100% and all other MTT values of cells incubated with Aβ were presented as a percentage of survival."}, "BACE1 [2]": {"test_system": "BACE1", "experiment": "BACE1 FRET activity assay (Michaelis-Menten) on PACAP-treated cortical neuronal culture", "format": "cell-based, APP-transgenic mice", "details": "PACAP treatment", "protocol": "FIG. 7 depicts, in accordance with embodiments herein, that PACAP inhibits BACE1 activity. Left panel: BACE1 activity kinetic was measured and fitted with Michaelis-Menten Model. […] Right panel: steady state endpoint fluorescent units (RFU). Note PACAP reduces the end product by BACE1.\n(§1) As the amyloid accumulation in AD was contributed by amyloid precursor protein (APP) cleaved by overactive β-secretase (BACE1) and subsequently by γ-secretase, the desirable therapeutic goal is to inhibit BACE1 and/or γ-secretase, while enhancing α-secretase. The inventors used APP-transgenic mice pups to establish cortical neuronal culture with the method that the inventors previously published (Han et al 2014, Neurobiology of Aging). At 14 days, the inventors added PACAP and treated for 72 hours. Then the cells were harvest for BACE1, ADAMS, or other ELISA-based Assays.\nThe inventors measured BACE1 activity using a BACE1 FRET assay kit (Panvera, Life technologies) with a customized protocol. The artificial substrate of BACE1 is a short peptide with a rhodamine-derived fluorescent donor coupled to a quenching acceptor (Rh-[…]-Quencher). Upon cleavage by BACE1, the rhodamine donor is released from quencher and emitted fluorescence detected under a wavelength of Ex/Em=545/585 nm. […]"}, "BACE1 [3]": {"test_system": "BACE1", "experiment": "BACE1 expression after PACAP treatment", "format": "cell-based, APP-transgenic mice", "source_text": "PACAP38 is the full length active peptide.\nas §1"}, "[4]": {"test_system": "phosphorylated Tau protein at the site of pThr231", "experiment": "Aβ42-induced Tau phosphorylation at Thr231, Western blot in cultured primary neurons", "format": "cell-based", "text": "The cells were harvested and homogenized for Western blot assay. The inventors used an antibody specific to phosphorylated Tau protein at the site of pThr231 (Pierce-antibody OPA1-03156)."}, "[5]": {"test_system": "phosphorylated Tau protein at the site of 422", "experiment": "Aβ42-induced Tau phosphorylation at site 422, In-Cell Western in cultured primary neurons", "format": "cell-based", "protocol": "The cells were fixed in 96 wells plate for In-Cell Western assay. The inventors used an antibody specific to phosphorylated Tau protein at the site of 422 and Tau5 antibody for total Tau quantification. pTau/total Tau ratio was calculated and compared. […] Okadaic acid (OA) is a potent phosphatase inhibitor to test maximal pTau capacity.\nBecause Tau hyperphosphorylation is contingent upon Aβ, this in vitro model best epitomizes AD pathogenesis and can differentiate AD from other tauopathy (FTLD, PDD, etc). […] Meanwhile, PACAP38 (lane 4) reduced Aβ-induced Tau phosphorylation and the phosphorylated Tau to actin ratio was 0.5. […] In addition to the phosphorylation site at Thr231 of Tau, the inventors tested pTau 422 using an in-cell Western approach on cultured cells (FIG. 11). PACAP (50 nM) reduces pTau422 by 40%."}, "cultured neurons [6]": {"test_system": "cultured neurons", "experiment": "Excitatory Postsynaptic Currents (EPSCs), Patch Clamp recording in cultured neurons", "format": "cell-based", "details": "for average EPSCs: control 21±5 pA", "protocol": "(§2) FIG. 12 depicts, in accordance with embodiments herein, the impact of PACAP's administration on synapses. […] Cultured neurons were treated with either nothing (top left), Aβ42 (top middle) or PACAP with Aβ42 (top right). Bottom panel: PACAP enhances synaptic transmissions (EPSCs frequency and amplitude) in cultured neuronal network.\n(§3) Furthermore, PACAP increased the frequency and amplitude of Excitatory Postsynaptic Currents (EPSCs) in cultured neurons without Aβ in the media (FIG. 12 bottom panel). The average EPSCs was 21±5 pA in control (n=7 cells), which was increased to 31±3 pA (n=9 cells) if the cultured neurons were pretreated with PACAP (20 nM) for 72 hours before Patch Clamp recording (p<0.05, one way ANOVA with posthoc Tukey test). PACAP6-38, the truncated non-active version mixed with PACAP38 blocked the effect of PACAP, resulting in an average EPSCs of 24±3 pA (n=6)."}, "cultured neurons [7]": {"test_system": "cultured neurons", "experiment": "Neurite integrity / Aβ-induced synaptic degeneration in cultured neurons", "format": "cell-based", "details": "PACAP with Aβ42", "protocol": "as §2, §3"}, "APP transgenic mice [8]": {"test_system": "APP transgenic mice", "experiment": "Thioflavin-S dense core amyloid plaques in hippocampal region after intranasal PACAP", "format": "in vivo", "protocol": "FIG. 13 depicts, in accordance with embodiments herein, the impact of PACAP's administration on plaques in APP transgenic mice in that PACAP reduces dense core amyloid plaque size. A: a typical amyloid plaque in the hippocampal region of an untreated APP transgenic mouse at 9 month age. Bar=20 μM. B: an amyloid plaque in the hippocampal region from an APP transgenic mouse (9 month) after intranasal PACAP treatment. Bar=20 μM.\n(§4) The inventors gave intranasal PACAP treatment to a group of APP transgenic mice and their wild-type littermates. Starting from the age of 6 months, these groups of mice were given bilateral nostril injection of PACAP (0.1 μg/μl, 3 μl per nostril) three times per week for eight continuous weeks. The injection procedure was described by Nonako et al 2012. At the age of 9 months, the inventors sacrificed the mice and examined amyloid plaques in the hippocampal regions using thioflavin-S staining and photographed under fluorescent microscope. These thioflavin-S positive dense core plaques are associated with deleterious effects whereas thioflavin-S negative diffusive amyloid plaques are non-detrimental and often associated with cognitive normal elderly individuals (Serrano-Pozo et al., 2011)."}, "[9]": {"test_system": "APP transgenic mice and wild-type littermates", "experiment": "Novel Objects Recognition (NOR) test after intranasal PACAP", "format": "in vivo", "details": "PACAP-treated WT mice", "protocol": "as §4\nNext, the inventors performed the Novel Objects Recognition (NOR) test. Briefly, the mice were acclimatized to a square chamber, then two identical objects were placed in the chamber on the second day. On the third day, one of the objects was replaced with a novel object. It is a natural behavior to take more time to explore the new object. The discriminating capacity on the new object vs the old object was calculated as discrimination index (DI) as follows:\nIn APP mice, DI change was −110% (n=4), indicating deterioration on cognitive function from 6-9 month (without PACAP treatment). […]"}, "APP transgenic mice [10]": {"test_system": "APP transgenic mice", "experiment": "Morris Water Maze (MWM) in APP mice after intranasal PACAP", "format": "in vivo", "details": "APP mice at 10 months", "protocol": "(A) APP mice were either treated with intranasal PACAP (n=4) or treated with intranasal saline (n=4). (B) WT mice were either treated with intranasal PACAP (n=3) or saline (n=3).\nas §4\nIn APP mice, DI change was −110% (n=4), indicating deterioration on cognitive function from 6-9 month (without PACAP treatment). PACAP treatment slows the declining rate as the DI change was −40% in PACAP-treated APP mice group (n=4). Furthermore, the inventors tested the mice in the Morris Water Maze (MWM), which is a behavior test used to examine the spatial recognition and memory function of mice. […]"}, "hTau transgenic mice": {"test_system": "hTau transgenic mice", "experiment": "Morris Water Maze in hTau transgenic mice after intranasal PACAP", "format": "in vivo", "details": "hTau mice at 10 months, intranasal PACAP 0.1 μg/μl, 3 μl per nostril, 3 times a week, 8 weeks", "protocol": "The inventors gave intranasal PACAP treatment for a group of hTau transgenic mice and their WT littermates. Starting from the age of 6 months, these groups of mice were given bilateral nostril injection of PACAP (0.1 μg/μl, 3 μl per nostril) 3 times a week for a continuous 8 weeks. Human Tau mice are appropriate model to test Tau phosphorylation and its pathological consequence. In this strain (B6.Cg-Mapttml(EGFP)Klt Tg(MAPT)8cPdav/J, Jackson lab), the intrinsic mice tau was disrupted by inserting eGFP sequence to the first exon of mice tau, but all 6 isoforms of human Tau (both 3R and 4R) were knocked in. The hTau mice show age dependent accumulation of hyperphosphorylated and aggregated tau in cortex and hippocampus, neuronal loss, and cognitive decline. The inventors tested the mice in Morris Water Maze, which is a behavior test approach to examine the spatial recognition and memory function of mice. […] Taken together, PACAP nasal injection decreases AD pathology and improves cognitive performance in two animal models of AD."}}, "note": "“Also recorded” adds a separate entry of the source.", "data": [{"substance": "Pituitary Adenylate Cyclase Activating Polypeptide [PACAP]", "values": [{"measurement": "PACAP concentration that effectively protects against Aβ42 toxicity", "setting": "[1]; Aβ42 1 μM, cultured mouse cortical neurons", "value": "≥ 50", "unit": "nM"}, {"measurement": "cell survival (MTT, control cells normalized to 100%)", "setting": "[1]; PACAP 50 nM added at the same time as 1 μM Aβ", "value": "79±5", "unit": "%"}, {"measurement": "cell survival (MTT, control cells normalized to 100%)", "setting": "[1]; PACAP 100 nM added at the same time as 1 μM Aβ", "value": "87±4", "unit": "%"}, {"measurement": "steady state endpoint fluorescent units (RFU), end product by BACE1", "setting": "BACE1 [2]", "value": "reduces"}, {"measurement": "BACE1 expression", "setting": "BACE1 [3]; PACAP38 full length peptide", "value": "reduces BACE1 expression"}, {"measurement": "phosphorylated Tau (pTau231) to actin ratio", "setting": "[4]; PACAP38 (50 nM) added 24 hours after Aβ42 (0.5 μM), 48 hours, lane 4, non-treated 0.25", "value": 0.5}, {"measurement": "reduction of pTau422", "setting": "[5]; PACAP 50 nM, Aβ42 (0.25 μM) treated cells", "value": 40, "unit": "%"}, {"measurement": "pTau/total Tau ratio", "setting": "[5]; PACAP by itself, without Aβ42", "value": "did not change Tau phosphorylation"}, {"measurement": "reduction of pTau422", "setting": "[5]; low dose PACAP 10 nM, Aβ42 treated cells", "value": "marginal effect"}, {"measurement": "frequency and amplitude of EPSCs", "setting": "cultured neurons [6]; cultured neurons without Aβ in the media", "value": "increased; also recorded: enhances"}, {"measurement": "average EPSCs", "setting": "cultured neurons [6]; pretreated with PACAP (20 nM) 72 hours, no Aβ", "value": "31±3", "unit": "pA"}, {"measurement": "neurite integrity / Aβ-induced synaptic degeneration", "setting": "cultured neurons [7]", "value": "protects Aβ-induced synaptic degeneration; also recorded: protects Aβ induced synaptic degeneration; also recorded: protects neurite integrity"}, {"measurement": "dense core amyloid plaque size (average core diameter)", "setting": "APP transgenic mice [8]; intranasal PACAP 0.1 μg/μl, 3 μl per nostril, three times per week, eight weeks from 6 months, examined at 9 months", "value": "smaller size; also recorded: significantly reduced"}, {"measurement": "number of amyloid plaques", "setting": "APP transgenic mice [8]; intranasal PACAP, APP transgenic mice, 9 month", "value": "did not significant change"}, {"measurement": "discrimination index (DI) change", "setting": "[9]", "value": "positively changed"}, {"measurement": "MWM performance", "setting": "APP transgenic mice [10]", "value": "prevents the deterioration"}, {"measurement": "MWM performance", "setting": "hTau transgenic mice", "value": "prevented the deterioration"}]}, {"substance": "PACAP6-38 [reference compound]", "values": [{"measurement": "effect of PAC1 receptor blocker on BACE1 reduction by PACAP", "setting": "BACE1 [3]; PACAP6-38 with PACAP", "value": "antagonized the BACE1 reduction effect of PACAP"}, {"measurement": "effect on PACAP reduction of pTau231", "setting": "[4]; PACAP6-38 (2 μM) with PACAP38 (50 nM) and Aβ42, lane 3", "value": "offsetting the effect of PACAP"}, {"measurement": "effect on PACAP enhancement of synaptic transmissions", "setting": "cultured neurons [6]; PAC1 receptor antagonist with PACAP", "value": "blocks the enhancement"}, {"measurement": "average EPSCs", "setting": "cultured neurons [6]; PACAP6-38 mixed with PACAP38", "value": "24±3", "unit": "pA"}]}]}
